# According to patent US20030212034A1, “Method of treatment of obesity and paralyzed muscle and ergogenic aids” (priority 2002, published 2003):
# Key:
# GLUT4 [1] = test: Muscle GLUT4 by western blot after chronic AICAR injection; format: in vivo, rat; settings: AICAR 1 mg/g 4 weeks, FIG. 5
# Procedure: To determine the effect of chronic injection of AICAR on muscle enyzme activities or expression and on muscle GLUT4, rats were injected subcutaneously (between 8 and 10 a.m.) with AICAR (1 mg/g) or saline vehicle daily for 28±1 days in succession. Beginning with the first injection, controls were pair fed with AICAR-injected rats. Rats were anesthetized by intraperitoneal injection of pentobarbital sodium 22-25 hours after the last AICAR injection and the white and red regions of the quadriceps and the soleus muscles were removed and frozen as described above. Muscles were kept frozen at −70° C. until analyzed. Liver, heart, kidney, and fat pads were weighed.
# For the chronic effects of AICAR injection muscles were analyzed for glycogen GLUT-4, hexokinase, lactate dehydrogenase, and several mitochondrial enzymes. Hassid, W. Z., & S. Abraham Methods Enzymol. 3:35-36, 1957. GLUT4 was quantitated by western blotting as described previously using GLUT4 polyclonal antibody RaIRGT, Biogenesis, Sandown, N.H.) and horseradish peroxidase-conjugated donkey anti-rabbit IgG (Amersham Life Science, Arlington Heights, Ill.). Holmes, B. F., et al. J. Appl Physiol 87:1990-1995, 1999. δ-Aminolevulinic acid synthase was determined using western blotting techniques as described previously. Li, B., et al. J. Biol. Chem. 274:17534-17540, 1999. For determination of cytochrome c, muscles were homogenized in 10 mM n-2-hydroxyethylpiperazine-N′-2-ethanesulfonic acid (HEPES), 1 mM EDTA, and 250 mM sucrose (HES buffer). […] Cytochrome c was detected by incubating the nitrocellulose blots with a rabbit polyclonal antibody against rabbit heart cytochrome c (Alpha Diagnostics International, San Antonio) followed by horseradish peroxidase-conjugated anti-rabbit immunoglobulin G. Antibody bound GLUT4, δ-Aminolevulinic acid synthase, and cytochrome c were visualized using enhanced chemiluminescence. Protein bands were quantified by densitometry.
# GLUT4 [2] = test: GLUT4 western blot in 3-day denervated and contralateral muscles after AICAR injections; format: in vivo, rat
# Procedure: Rats were anesthetized with ether and the sciatic nerve of the right hindlimb was severed. The left hindlimb was sham operated to serve as a control. Both skin wounds were closed with a metal clips. The rats used for the acute study were also implanted with a jugular catheter which was exteriorized on the back of the neck at the time of denervation for rapid administration of anesthesia.
# Muscle was ground to a powder under liquid nitrogen and homogenized ([…]) in HEPES buffer [25 mM HEPES, 1 mM EDTA, 1 mM benzamadine, 1 mM 4-(2-aminoethyl)-benzene+sulfonyl fluoride, 1 μM leupeptin, 1 μM antitrypsin, 1 μM aprotinin, pH 7.5]. This homogenate was then diluted with water and Laemmli's buffer (1 mL homogenate:2 mL water: 1 mL buffer) immediately before loading. 20 μL of this homogenate were then loaded onto a 10% SDS-PAGE mini gel (Tris-HCl ready gels, BioRad, Hercules, Calif.). Samples were subjected to electrophoresis at 200 V for 45 minutes. Proteins were transferred from gel to nitrocellulose membrane at 100V for 50 minutes. Membranes were blocked in 5% non-fat milk (BioRad, Hercules, Calif.) in PBST (139 mM NaCl, 2.7 mM KH2PO4, 9.9 mM Na2HPO4, and 0.05% Tween-20) and were then left overnight with GLUT4 polyclonal antibody (Biogenesis, Kingston, N.H.) in 5% dried milk solution (1:5000 dilution). After washing twice in PBST, and twice in PBS (139 mM NaCl, 2.7 mM KH2PO4, 9.9 mM Na2HPO4), the membranes were exposed to horseradish peroxidase-conjugated donkey anti-rabbit IgG (Amersham Life Sciences, Arlington Heights, Ill.) for 1 h. at room temperature. After again washing twice with PBST and twice with PBS, the membranes were incubated in enhanced chemoluminescence-detection reagent and then visualized on enhanced chemoluminescence hyperfilm (Amersham Life Sciences). Relative amounts of GLUT4 were then quantified using a Hewlett Packard Scan Jet 6200C and SigmaGel software (SPSS, Chicago, Ill.). Western blot data are expressed as arbitrary units where individual values were divided by the mean basal GLUT4 value (sham operated leg/injected with 0.9%/NaCl solution).
# Rats were injected either with AICAR (1 mg in 0.9% NaCl/g body weight) or a 0.9% NaCl solution ˜0, ˜24, and ˜48 hours after denervation and were then sacrificed ˜72 hours after denervation without injection. Rats were anesthetized with sodium pentobarbital (4.8 mg/100 g. body weight), soleus and gastrocnemius muscles from both sham and denervated sides were extracted, and muscles were quick frozen in liquid nitrogen and stored for analysis.
# Rats were denervated as described above between 8:00 and 10:00 and were immediately injection with either 0.9% NaCl solution (n=4), 0.1 mg AICAR in 0.9% NaCl/g body weight (n=4), 0.5 mg AICAR in 0.9% NaCl/g body weight (n=3), or 1 mg AICAR in 0.9% NaCl/g body weight (n=4). Rats of each treatment group were subsequently injected with the respective AICAR solutions at ˜24 and ˜48 hours after denervation. Rats were killed ˜72 hours after denervation without an AICAR injection and muscles were collected as described above.
smiles,measurement,setting,value
"NC(=O)c1ncn([C@@H]2O[C@H](CO)[C@@H](O)[C@H]2O)c1N [AICAR, 5-aminoimidazole-4-carboxamide-1-β-D-ribofuranoside]",GLUT4 vs saline-injected controls,GLUT4 [1]; red region of the quadriceps,significantly increased
same,GLUT4 vs saline-injected controls,"GLUT4 [1]; soleus, p=0.12",did not reach statistical significance
same,GLUT4 vs saline-injected controls,GLUT4 [1]; white region of the quadriceps,significantly increased
same,"GLUT4 content, percent intensity of saline-treated contralateral innervated controls","GLUT4 [2]; contralateral innervated gastrocnemius, AICAR 1 mg/g for 3 days",130.1%
same,"GLUT4 content, percent intensity of saline-treated contralateral innervated controls","GLUT4 [2]; denervated gastrocnemius, AICAR 1 mg/g for 3 days, saline denervated 60.1%",106.6%
same,dose dependent response of GLUT4 vs saline-treated denervated gastrocnemius,"GLUT4 [2]; denervated gastrocnemius, doses 0.1, 0.5, 1 mg/g, result for the 1 mg/g dose, FIG. 11",only dose that significantly raises GLUT4 content
same,increase of GLUT4 vs. saline-treated denervated gastrocnemius controls,"GLUT4 [2]; denervated gastrocnemius, subcutaneous AICAR injections",80%
same,"GLUT4 content, percent of saline-treated contralateral controls","GLUT4 [2]; denervated soleus, AICAR 1 mg/g for 3 days, saline denervated 72.6%, not significant",85.4%
same,dose dependent response of GLUT4 vs saline-treated innervated gastrocnemius,"GLUT4 [2]; innervated gastrocnemius, doses 0.1, 0.5, 1 mg/g, result for the 1 mg/g dose, FIG. 11",only dose that significantly raises GLUT4 content
